{
  "source": "patent US6521596B1",
  "about": "“Lanthionine antibiotic compositions and method” (priority 1994, dated 2003)",
  "key": {"[1]": {"conditions": "single substitution of Ile for Glu at position 4, versus unmodified subtilin; cited from earlier work"}, "[2]": {"system": "S. sobrinus OMZ176, S. mutans 10449, or S. sanguis Ny101 as sensitive indicators", "experiment": "Mutacin assay: spot test of 2-fold dilutions, bacteriocin units (BU)", "format": "cell-based", "conditions": "bacteriocin units per mg total protein, at stages of purification", "source_text": "The isolated antimicrobial mutacin polypeptides of the invention are generally characterized as having substantial bacteriocidal activity. As used herein the term “substantial bacteriocidal activity” describes significant mutacin-directed bacterial killing, as measured by any one of a variety of assays. Bacteriocidal activity may be advantageously examined and quantified by the deferred antagonism technique on trypticase soy-yeast agar (TSAY) using S. sobrinus OMZ176 or S. sanguis Ny101 as sensitive indicators (Parrot, et al., 1990). A unit of bacteriocidal activity (BU), present in liquid culture, is described as the lowest titer yielding a clear lytic-like zone of inhibition having clear edges and greater than 10 mm in diameter. Chikindas et al. describes arbitrary units (AU) of activity, which are essentially identical to bacteriocidal activity units. […]\nMutacin production was detected by deferred antagonism technique on trypticase soy-yeast agar (TSAY) using S. sobrinus OMZ176, S. mutans 10449, or S. sanguis Ny101 as sensitive indicators (Parrot, et al., 1990). Mutacin present in liquid culture was quantified by spotting […] of 2-fold dilutions of mutacin in phosphate buffered saline (PBS) onto the surface of TSAY overlaid with indicator strain as described. […]"}, "Streptococcus salivarius": {"system": "Streptococcus salivarius", "experiment": "Deferred antagonism assay on trypticase soy-yeast agar plates", "format": "cell-based", "conditions": "zone of inhibition"}, "Mycobacterium phlei": {"system": "Mycobacterium phlei", "experiment": "Deferred antagonism assay on trypticase soy-yeast agar plates", "format": "cell-based", "conditions": "zone of inhibition"}, "Streptococcus mutans WT": {"system": "Streptococcus mutans WT", "experiment": "Deferred antagonism assay on trypticase soy-yeast agar plates", "format": "cell-based", "conditions": "zone of inhibition", "description": "(§1) Mutacin production was detected by deferred antagonism technique on trypticase soy-yeast agar (TSAY) using S. sobrinus OMZ176, S. mutans 10449, or S. sanguis Ny101 as sensitive indicators (Parrot, et al., 1990). Mutacin present in liquid culture was quantified by spotting […] of 2-fold dilutions of mutacin in phosphate buffered saline (PBS) onto the surface of TSAY overlaid with indicator strain as described. Spots were allowed to dry for 1 h, then the plates were incubated anaerobically for 24 h. The lowest titer yielding a zone of inhibition having clear edges was defined as one bacteriocin unit (BU).\n(§2) Biological activity may also be measured by overlaying thin layer chromatography or SDS-PAGE gels with an indicator strain."}, "Streptococcus sanguis": {"system": "Streptococcus sanguis", "experiment": "Deferred antagonism assay on trypticase soy-yeast agar plates", "format": "cell-based", "conditions": "zone of inhibition", "description": "as §1, §2"}, "Streptococcus faecium": {"system": "Streptococcus faecium", "experiment": "Deferred antagonism assay on trypticase soy-yeast agar plates", "format": "cell-based", "conditions": "zone of inhibition"}, "trypsin": {"system": "trypsin", "experiment": "Sensitivity to trypsin (residual mutacin activity)", "format": "physicochemical", "description": "Sensitivity to trypsin (Sigma Chemical Co., St. Louis, Mo.) was determined according to the manufacturer's recommendation by incubating purified mutacin (4096 BU) in 50 ml of 50 mM sodium phosphate buffer pH 7.5 with trypsin (2 mg) at room temperature. Samples were analyzed for residual mutacin activity at various time intervals.\n(§3) Mutacin was sensitive to trypsin. After 10 min incubation with the protease, no activity in sample was detected. Control samples without trypsin retained their full activity under identical conditions. Mutacin was thermostable as analyzed by residual activity after incubation at 80° C. for 30 min, and by incubating at 100° C. in loading buffer."}, "[3]": {"system": "Streptococcus faecalis 78.4", "experiment": "Deferred antagonism assay on trypticase soy-yeast agar plates", "format": "cell-based", "conditions": "zone of inhibition"}, "[4]": {"format": "physicochemical", "source_text": "(§4) The mutacins of the present invention have an apparent Mr of about 2,500 Da as determined by high performance liquid chromatography using a size-exclusion column. This is a useful defining parameter which may be determined using the routinely employed technique of column chromatography. However, the highly purified mutacins may be found to have a slightly different exact molecular weights, depending on the technique used, such as the molecular weight of 3,244.64±1.15 Da determined by ion spray mass spectroscopy for the T8-derived mutacin as determined from the m/z values, wherein z is equal to 2, 3, or 4 for m / z values 1623, 1083 and 812, respectively (see FIG. 4). Furthermore, the mutacin is thermostable, as measured by, e.g., incubating an agar plug at 100° C. for 30 minutes and quantitating bacteriocidal activity. The mutacin is stable over a pH range of 4-10, as measured by incubating the purified mutacin for 24 hours in appropriate 0.1 M buffers, e.g., such as acetate, phosphate or glycine buffers, at room temperature, and tested for bacteriocidal activity.\nPurified mutacin was mixed with different 0.1 M buffers in range pH 4-11 (sodium acetate pH 4-6; sodium phosphate pH 7-8; glycine-NaOH pH 8-11). After one or 24 h incubation at room temperature, residual mutacin activity was assayed using the spot test described above. […]"}, "[5]": {"experiment": "Isoelectric point (electrophoretic mobility / isoelectric focusing)", "format": "physicochemical", "conditions": "based on electrophoretic mobility"}, "Staphylococcus aureus": {"system": "Staphylococcus aureus", "experiment": "Deferred antagonism assay on trypticase soy-yeast agar plates", "format": "cell-based", "set-up": "key: S, sensitive (zone radius >2 mm); SS, zone radius >S", "conditions": "zone of inhibition"}, "[6]": {"format": "physicochemical", "source_text": "as §4, §3", "remark": "listed apart in the source"}, "[7]": {"system": "Streptococcus mutans GS-5", "experiment": "Deferred antagonism assay on trypticase soy-yeast agar plates", "format": "cell-based", "conditions": "zone of inhibition"}, "Streptococcus pyogenes": {"system": "Streptococcus pyogenes", "experiment": "Deferred antagonism assay on trypticase soy-yeast agar plates", "format": "cell-based", "set-up": "key: S, sensitive (zone radius >2 mm); SS, zone radius >S", "conditions": "zone of inhibition"}, "Streptococcus rattus": {"system": "Streptococcus rattus", "experiment": "Deferred antagonism assay on trypticase soy-yeast agar plates", "format": "cell-based", "conditions": "zone of inhibition"}, "Clostridium sporogenes": {"system": "Clostridium sporogenes", "experiment": "Deferred antagonism assay on trypticase soy-yeast agar plates", "format": "cell-based", "conditions": "Clostridium sporogenes (ATCC 19606); zone of inhibition"}, "Streptococcus lactis": {"system": "Streptococcus lactis", "experiment": "Deferred antagonism assay on trypticase soy-yeast agar plates", "format": "cell-based", "conditions": "zone of inhibition"}, "Streptococcus mitis": {"system": "Streptococcus mitis", "experiment": "Deferred antagonism assay on trypticase soy-yeast agar plates", "format": "cell-based", "conditions": "zone of inhibition"}, "Actinomyces viscosus": {"system": "Actinomyces viscosus", "experiment": "Deferred antagonism assay on trypticase soy-yeast agar plates", "format": "cell-based", "conditions": "zone of inhibition"}, "Bacillus subtilis 1687": {"system": "Bacillus subtilis 1687", "experiment": "Deferred antagonism assay on trypticase soy-yeast agar plates", "format": "cell-based", "conditions": "zone of inhibition"}, "Streptococcus mutans 159": {"system": "Streptococcus mutans 159", "experiment": "Deferred antagonism assay on trypticase soy-yeast agar plates", "format": "cell-based", "conditions": "zone of inhibition"}, "Streptococcus pneumoniae": {"system": "Streptococcus pneumoniae", "experiment": "Deferred antagonism assay on trypticase soy-yeast agar plates", "format": "cell-based", "set-up": "key: S, sensitive (zone radius >2 mm); SS, zone radius >S", "conditions": "zone of inhibition"}, "Streptococcus mutans 130": {"system": "Streptococcus mutans 130", "experiment": "Deferred antagonism assay on trypticase soy-yeast agar plates", "format": "cell-based", "conditions": "zone of inhibition"}},
  "note": "Where two headings read alike, the source gives them in different places. No end group written: not given here.",
  "data": [
    {"compound": "C=C1NC(=O)CC[C@@H](C(=O)O)NC(=O)[C@H](NC(=O)[C@H](CCCCN)NC(=O)[C@@H](N)Cc2c[nH]c3ccccc23)CSC[C@@H](C(=O)N[C@@H]2C(=O)N3CCC[C@H]3C(=O)NCC(=O)N[C@H](C(=O)N[C@H](C(=O)N[C@@H]3C(=O)NCC(=O)N[C@@H](C)C(=O)N[C@@H](CC(C)C)C(=O)N[C@@H](CCC(N)=O)C(=O)N/C(=C/C)C(=O)N[C@H](C(=O)N[C@@H](Cc4ccccc4)C(=O)N[C@@H](CC(C)C)C(=O)N[C@@H](CCC(N)=O)C(=O)N[C@@H]4C(=O)N[C@@H](CC(C)C)C(=O)N[C@H]5C(=O)N[C@@H](CSC4C)C(=O)NC(=O)[C@H](CC(N)=O)N[C@H](C(=O)N[C@@H](CCCCN)C(=O)N[C@H](C(=O)NC(=C)C(=O)N[C@@H](CCCCN)C(=O)O)[C@@H](C)CC)CSC5C)CSC3C)C(C)C)CSC2C)N[C@@H](CC(C)C)C(=O)NC1=O", "note": "(stereo partly shown) [subtilin]", "values": [
      {"measurement": "increase of the biological half-life", "setting": "[1]", "value": 57, "unit": "fold"}
    ]},
    {"compound": "Water precipitate from 8M urea: final preparation of mutacin, solubilized in 8 M urea and precipitated with water; over 90% pure (NRWWQGVVPTVSYECRMNSWQHVFTCC; cysteine pairing not given here; also: lanthionine-containing lantibiotic, lanthionines not placed; UniProt O54329 27-53, looked up)", "values": [
      {"measurement": "Spec. activity", "setting": "[2]", "value": "150,187 BU/mg"}
    ]},
    {"compound": "Mutacin: lanthionine-containing polypeptide antibiotic (lantibiotic) purified from Streptococcus mutans T8 or UA96; N-terminus Asn Arg Trp Trp Gln Gly Val Val (NRWWQGVVPTVSYECRMNSWQHVFTCC; cysteine pairing not given here; also: lanthionine-containing lantibiotic, lanthionines not placed; UniProt O54329 27-53, looked up)", "values": [
      {"measurement": "Sensitivity", "setting": "Streptococcus salivarius", "value": "S (S, sensitive (zone radius >2 mm))"},
      {"measurement": "Sensitivity", "setting": "Mycobacterium phlei", "value": "S (S, sensitive (zone radius >2 mm))"},
      {"measurement": "Sensitivity", "setting": "Streptococcus mutans WT", "value": "S (S, sensitive (zone radius >2 mm))"},
      {"measurement": "Sensitivity", "setting": "Streptococcus sanguis", "value": "S (S, sensitive (zone radius >2 mm))"},
      {"measurement": "Sensitivity", "setting": "Streptococcus faecium", "value": "S (S, sensitive (zone radius >2 mm))"},
      {"measurement": "Trypsin (sensitivity)", "setting": "trypsin", "value": "sensitive"},
      {"measurement": "residual mutacin activity after incubation with trypsin", "setting": "trypsin; 10 min, 4096 BU mutacin, trypsin 2 mg, 50 mM sodium phosphate pH 7.5, room temperature", "value": "no activity"},
      {"measurement": "Sensitivity", "setting": "[3]", "value": "S (S, sensitive (zone radius >2 mm))"},
      {"measurement": "pH (stable range)", "setting": "[4]; listed as mutacin", "value": "4-10"},
      {"measurement": "residual activity after incubation at pH 11", "setting": "[4]; pH 11, 0.1 M glycine-NaOH, one or 24 h at room temperature, spot test", "value": "about 50%"},
      {"measurement": "pI (isoelectric point)", "setting": "[5]", "value": "≧8.4 (based on electrophoretic"},
      {"measurement": "Sensitivity", "setting": "Staphylococcus aureus", "value": "SS"},
      {"measurement": "Temperature (thermostable)", "setting": "[6]", "value": "thermostable > 100 °C"},
      {"measurement": "thermostability, residual activity after incubation", "setting": "[6]", "value": "thermostable"},
      {"measurement": "Temperature (thermostable)", "setting": "[6]; listed as mutacin", "value": "up to 100 °C"},
      {"measurement": "Sensitivity", "setting": "[7]", "value": "S (S, sensitive (zone radius >2 mm))"},
      {"measurement": "Sensitivity", "setting": "Streptococcus pyogenes", "value": "SS"},
      {"measurement": "Sensitivity", "setting": "Streptococcus rattus", "value": "S (S, sensitive (zone radius >2 mm))"},
      {"measurement": "Sensitivity", "setting": "Clostridium sporogenes", "value": "S (S, sensitive (zone radius >2 mm))"},
      {"measurement": "Sensitivity", "setting": "Streptococcus lactis", "value": "S (S, sensitive (zone radius >2 mm))"},
      {"measurement": "Sensitivity", "setting": "Streptococcus mitis", "value": "S (S, sensitive (zone radius >2 mm))"},
      {"measurement": "Sensitivity", "setting": "Actinomyces viscosus", "value": "S (S, sensitive (zone radius >2 mm))"},
      {"measurement": "Sensitivity", "setting": "Bacillus subtilis 1687", "value": "S (S, sensitive (zone radius >2 mm))"},
      {"measurement": "Sensitivity", "setting": "Streptococcus mutans 159", "value": "S (S, sensitive (zone radius >2 mm))"},
      {"measurement": "Sensitivity", "setting": "Streptococcus pneumoniae", "value": "SS"},
      {"measurement": "Sensitivity", "setting": "Streptococcus mutans 130", "value": "S (S, sensitive (zone radius >2 mm))"}
    ]}
  ]
}
